In ChEMBL document CHEMBL1201862, “PubChem BioAssay data set” (2004):
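Cells were grown in 96-well plates and exposed to each compound for 48 hours at five concentrations; endpoints were interpolated linearly between bracketing concentrations, or set to the highest concentration if not reached. At the GI50, growth is halved.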 Activity calls are given as the source filed them. Cut-off read from the data, not from the text of the source: active = GI50 up to about 1.1 µM and inactive = higher.

Columns and labels:
Assay in all cases: NCI tumour cell line growth inhibition, 48 h
[1] = test system: SR
[2] = test system: OVCAR-4
[3] = test system: COLO 205
[4] = test system: OVCAR-5
[5] = test system: CCRF-CEM
[6] = test system: MDA-MB-435
[7] = test system: MOLT-4
[8] = test system: HCT-15
[9] = test system: OVCAR-8
[10] = test system: SK-MEL-5
[11] = test system: HOP-92
[12] = test system: BT-549
[13] = test system: HL-60
[14] = test system: Malme-3M
[15] = test system: RXF 393
[16] = test system: K562
[17] = test system: NCI-H460
[18] = test system: A549
[19] = test system: SNB-19
[20] = test system: 786-0

SMILES	GI50 [1]	GI50 [2]	GI50 [3]	GI50 [4]	GI50 [5]	GI50 [6]	GI50 [7]	GI50 [8] [µM]	GI50 [9]	GI50 [10]	GI50 [11]	GI50 [12]	GI50 [13]	GI50 [14]	GI50 [15]	GI50 [16]	GI50 [17]	GI50 [18]	GI50 [19]	GI50 [20]
COC(=O)C1=C(O)CCCC(CCC(C)=O)=C1	21.8 µM (inactive)	46.9 µM (inactive)	20.5 µM (inactive)	> 100 µM (inactive)	9.71 µM (inactive)	69.5 µM (inactive)	36.5 µM (inactive)	39.3	56.5 µM (inactive)	> 100 µM (inactive)	28.9 µM (inactive)	> 100 µM (inactive)	3.99 µM (inactive)	41.3 µM (inactive)	33.4 µM (inactive)	31.3 µM (inactive)	30.7 µM (inactive)	95.3 µM (inactive)	> 100 µM (inactive)	26.9 µM (inactive)
CC1(C)C2CCC1C(=O)[C@@]1(C=CC(=O)CC1)C2 (stereo partly drawn)	> 100 µM (inactive)	> 100 µM (inactive)	> 100 µM (inactive)	> 100 µM (inactive)	> 100 µM (inactive)	> 100 µM (inactive)	> 100 µM (inactive)	> 100	> 100 µM (inactive)	> 100 µM (inactive)	> 100 µM (inactive)	> 100 µM (inactive)	> 100 µM (inactive)	> 100 µM (inactive)	> 100 µM (inactive)	> 100 µM (inactive)	> 100 µM (inactive)	> 100 µM (inactive)	> 100 µM (inactive)	> 100 µM (inactive)
C1CN(C23OC4(N5CCOCC5)C5C6CC(C7C6C4C72)C53)CCO1 (stereo not drawn)	> 100 µM (inactive)	> 100 µM (inactive)	> 100 µM (inactive)	> 100 µM (inactive)	> 100 µM (inactive)	> 100 µM (inactive)	> 100 µM (inactive)	> 100	> 100 µM (inactive)	> 100 µM (inactive)	> 100 µM (inactive)	> 100 µM (inactive)	> 100 µM (inactive)	> 100 µM (inactive)	> 100 µM (inactive)	> 100 µM (inactive)	> 100 µM (inactive)	> 100 µM (inactive)	> 100 µM (inactive)	> 100 µM (inactive)
O=C(O)CN1CCN2CCOCCN(CC1)CCN(CC(=O)O)CC2	> 100 µM (inactive)	> 100 µM (inactive)	> 100 µM (inactive)	> 100 µM (inactive)	> 100 µM (inactive)	> 100 µM (inactive)	> 100 µM (inactive)	> 100	> 100 µM (inactive)	> 100 µM (inactive)	> 100 µM (inactive)	> 100 µM (inactive)	> 53.3 µM (inactive)	> 100 µM (inactive)	> 100 µM (inactive)	> 100 µM (inactive)	> 100 µM (inactive)	> 100 µM (inactive)	> 100 µM (inactive)	> 100 µM (inactive)
O=[N+]([O-])c1cc(Cl)cc2cc(Br)cnc12	> 31.6 µM (inactive)	> 31.6 µM (inactive)	> 31.6 µM (inactive)	> 31.6 µM (inactive)	> 31.6 µM (inactive)	> 31.6 µM (inactive)	> 31.6 µM (inactive)	> 31.6	24.1 µM (inactive)	16.7 µM (inactive)	5.46 µM (inactive)	28.1 µM (inactive)	> 31.6 µM (inactive)	> 31.6 µM (inactive)	> 31.6 µM (inactive)	> 31.6 µM (inactive)	> 31.6 µM (inactive)	> 31.6 µM (inactive)	27.8 µM (inactive)	21.4 µM (inactive)
O=C1C(=Cc2ccccc2[N+](=O)[O-])N=C(c2ccccc2)N1n1c(-c2ccccc2)nc2ccccc2c1=O	37.7 µM (inactive)	33.4 µM (inactive)	31.3 µM (inactive)	71.3 µM (inactive)	31 µM (inactive)	32.4 µM (inactive)	27.8 µM (inactive)	24.5	24.7 µM (inactive)	31.5 µM (inactive)	15.2 µM (inactive)	41.8 µM (inactive)	> 10 µM (inactive)	25.1 µM (inactive)	16.1 µM (inactive)	31.8 µM (inactive)	31.3 µM (inactive)	35.7 µM (inactive)	35.3 µM (inactive)	38 µM (inactive)
CC(C)(Cl)C(Br)CC/C(=C/CCl)CBr.CC(C)(Cl)C(Br)CC/C(=C\CCl)CBr (stereo not drawn)	1.29 µM (inactive)	2.34 µM (inactive)	2.4 µM (inactive)	8.89 µM (inactive)	1.32 µM (inactive)	2 µM (inactive)	1.34 µM (inactive)	1.43	2.06 µM (inactive)	3.1 µM (inactive)	2.07 µM (inactive)	3.05 µM (inactive)	0.802 µM (active)	1.71 µM (inactive)	2.62 µM (inactive)	1.72 µM (inactive)	2.02 µM (inactive)	14.4 µM (inactive)	2.1 µM (inactive)	1.86 µM (inactive)
Cc1nn(C(=O)c2ccc(Cl)cc2)c2c1C(c1ccccc1O)SC(=N)N2 (stereo not drawn)	> 10 µM (inactive)	> 10 µM (inactive)	> 10 µM (inactive)	> 10 µM (inactive)	> 10 µM (inactive)	> 10 µM (inactive)	> 10 µM (inactive)	> 10	> 10 µM (inactive)	> 10 µM (inactive)	> 10 µM (inactive)	> 10 µM (inactive)	> 10 µM (inactive)	> 10 µM (inactive)	> 10 µM (inactive)	> 10 µM (inactive)	> 10 µM (inactive)	> 10 µM (inactive)	> 10 µM (inactive)	> 10 µM (inactive)
O=c1c2cccnc2[s+]([O-])n1Cc1ccccc1 (stereo not drawn)	> 100 µM (inactive)	> 100 µM (inactive)	> 100 µM (inactive)	> 100 µM (inactive)	3.01 µM (inactive)	> 100 µM (inactive)	> 100 µM (inactive)	> 100	> 100 µM (inactive)	> 100 µM (inactive)	> 100 µM (inactive)	> 100 µM (inactive)	> 10 µM (inactive)	> 100 µM (inactive)	> 100 µM (inactive)	> 100 µM (inactive)	> 100 µM (inactive)	> 100 µM (inactive)	> 100 µM (inactive)	> 100 µM (inactive)
O=C(N/N=C/c1ccccc1)c1cccc2nc3ccccc3nc12	> 100 µM (inactive)	> 100 µM (inactive)	4.08 µM (inactive)	> 100 µM (inactive)	> 74.8 µM (inactive)	65 µM (inactive)	> 100 µM (inactive)	9.66	> 85.7 µM (inactive)	3.19 µM (inactive)	> 69.2 µM (inactive)	> 58.2 µM (inactive)	> 100 µM (inactive)	> 100 µM (inactive)	> 100 µM (inactive)	> 100 µM (inactive)	3.5 µM (inactive)	3.81 µM (inactive)	> 73.1 µM (inactive)	> 100 µM (inactive)
COc1nc2c(c(=O)[nH]1)N=C(c1ccccc1)CC(c1ccccc1)N2 (stereo not drawn)	> 10 µM (inactive)	26.9 µM (inactive)	> 100 µM (inactive)	> 100 µM (inactive)	36.4 µM (inactive)	59.7 µM (inactive)	31.3 µM (inactive)	–	28.1 µM (inactive)	38.3 µM (inactive)	80.9 µM (inactive)	37.4 µM (inactive)	> 10 µM (inactive)	72.9 µM (inactive)	31 µM (inactive)	25.3 µM (inactive)	35.6 µM (inactive)	55.6 µM (inactive)	> 100 µM (inactive)	37.7 µM (inactive)
C/C(=N/NC(=S)Nc1cccc(Cl)c1)c1ccccn1	< 0.0185 µM (active)	1.05 µM (active)	0.0372 µM (active)	0.0474 µM (active)	< 0.0174 µM (active)	1.31 µM (inactive)	< 0.0156 µM (active)	0.0588	0.0834 µM (active)	0.37 µM (active)	1.18 µM (inactive)	1.82 µM (inactive)	< 0.0141 µM (active)	0.301 µM (active)	1.52 µM (inactive)	0.0324 µM (active)	0.357 µM (active)	0.802 µM (active)	2.5 µM (inactive)	0.562 µM (active)
CCOC(=O)c1c(NCc2ccccc2)n(-c2ccccc2)c(=S)n(-c2ccccc2)c1=O	33.7 µM (inactive)	98.6 µM (inactive)	76.2 µM (inactive)	> 100 µM (inactive)	29.4 µM (inactive)	> 100 µM (inactive)	34.5 µM (inactive)	63.1	> 100 µM (inactive)	94.6 µM (inactive)	> 100 µM (inactive)	36.9 µM (inactive)	35.6 µM (inactive)	> 100 µM (inactive)	> 100 µM (inactive)	41.1 µM (inactive)	> 100 µM (inactive)	91.6 µM (inactive)	> 100 µM (inactive)	> 100 µM (inactive)
Cc1ccc(CCCC(=O)O)cc1C	> 100 µM (inactive)	> 100 µM (inactive)	–	> 100 µM (inactive)	> 100 µM (inactive)	> 100 µM (inactive)	> 100 µM (inactive)	> 100	> 100 µM (inactive)	> 100 µM (inactive)	> 100 µM (inactive)	> 100 µM (inactive)	> 100 µM (inactive)	> 100 µM (inactive)	> 100 µM (inactive)	> 100 µM (inactive)	> 100 µM (inactive)	> 100 µM (inactive)	> 100 µM (inactive)	> 100 µM (inactive)
